How the values were obtained:
[1] = target: T1, Tie2 intracellular domain protein (Homo sapiens, UniProt Q02763); experiment: TIE2 kinase inhibitory activity (AlphaScreen); type: biochemical
T1 construct: 50 ng/mL of Tie2 intracellular domain protein (Millipore); purchased Millipore

[2] = tested on: Human gastric cancer cell line MKN-45; experiment: Human gastric cancer cell line MKN-45 growth inhibitory test; type: cell-based; conditions: MKN-45, 72 h, culture for 3 days; for inhibition at 1 µM: 1 μM test substance, read-out: inhibitory rate (%) at 1 μM; for IC50: read-out: IC50 value
In short: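 MKN-45 cells plated at 3000/well in RPMI1640 with 0.3% FBS, then exposed to test substance for 3 days at 37 °C. Viability read by CCK-8 absorbance at 450 nm; IC50 from variable-slope sigmoidal fit, with DMSO as 100% growth and 10 µM reference c-Met inhibitor as 0% growth.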

[3] = target: T2, FLT3 intracellular domain protein (Homo sapiens, UniProt P36888); experiment: Fms Like Tyrosine Kinase 3 (FLT3) kinase inhibitory activity (AlphaScreen); type: biochemical; conditions: for inhibition at 1 µM: 1 μM test compound, read-out: inhibitory rate (%) at 1 μM
T2 construct: 7.5 ng/ml of FLT3 intracellular domain protein (Millipore); purchased Millipore
T2 sequence (P36888 564-993 limits assumed): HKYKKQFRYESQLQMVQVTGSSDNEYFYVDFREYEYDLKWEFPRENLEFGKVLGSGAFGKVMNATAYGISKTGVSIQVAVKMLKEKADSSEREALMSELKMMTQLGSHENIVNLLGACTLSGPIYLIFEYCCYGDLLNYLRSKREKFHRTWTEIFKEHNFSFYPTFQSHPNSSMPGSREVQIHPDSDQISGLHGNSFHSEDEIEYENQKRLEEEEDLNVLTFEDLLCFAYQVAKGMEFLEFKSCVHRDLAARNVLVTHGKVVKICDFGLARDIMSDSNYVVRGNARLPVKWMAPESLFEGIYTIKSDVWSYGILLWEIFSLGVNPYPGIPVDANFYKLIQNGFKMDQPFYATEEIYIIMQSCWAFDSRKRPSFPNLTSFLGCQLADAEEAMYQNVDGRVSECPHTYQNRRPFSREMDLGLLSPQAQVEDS
In short: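 FLT3 intracellular domain (7.5 ng/ml) and biotin-poly-Glu:Tyr (250 ng/mL), each as added, were preincubated 5 min with compound in Tris pH 7.5 with Mg²⁺, Mn²⁺, DTT and Tween-20. ATP was added (5 μM) for 10 min at 25 °C, then EDTA stop with streptavidin donor/anti-phosphotyrosine acceptor beads for 16 h. % inhibition was calculated against the no-compound control and the no-compound/no-ATP blank.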

T1 sequence (Q02763 770-1124 limits assumed): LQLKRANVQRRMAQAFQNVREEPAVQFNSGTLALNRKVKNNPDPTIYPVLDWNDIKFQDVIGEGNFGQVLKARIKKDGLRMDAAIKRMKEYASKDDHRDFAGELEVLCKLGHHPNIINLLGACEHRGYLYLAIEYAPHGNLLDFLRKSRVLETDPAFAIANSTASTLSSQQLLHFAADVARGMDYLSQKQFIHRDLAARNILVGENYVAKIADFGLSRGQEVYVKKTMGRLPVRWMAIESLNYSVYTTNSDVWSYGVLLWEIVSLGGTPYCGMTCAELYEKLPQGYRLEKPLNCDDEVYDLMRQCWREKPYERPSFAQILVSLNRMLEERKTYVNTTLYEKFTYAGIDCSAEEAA

Structure (SMILES)	IC50 [1] [nM]	IC50 [2] [nM]	IC50 [3] [nM]	inhibition at 1 µM [3] [%]	inhibition at 1 µM [2] [%]
Cc1ccc(C(=O)Nc2ccc(Oc3ccc4nc(NC(=O)C5CC5)cn4c3)c(F)c2)c(=O)n1-c1ccc(F)c(F)c1 [Example 45, N-[4-({2-[(cyclopropylcarbonyl)amino]imidazo[1,2-a]pyridin-6-yl}oxy)-3-fluorophenyl]-1-(3,4-difluorophenyl)-6-methyl-2-oxo-1,2-dihydropyridine-3-carboxamide]	≤ 1000	≤ 1000	≤ 1000		≥ 80
Cc1ccc(C(=O)Nc2ccc(Oc3ccc4nc(NC(=O)C5CC5)cn4c3)c(F)c2)[n+]([O-])c1-c1cccc(F)c1 [Example 93, N-[4-({2-[(cyclopropylcarbonyl)amino]imidazo[1,2-a]pyridin-6-yl}oxy)-3-fluorophenyl]-6-(3-fluorophenyl)-5-methylpyridine-2-carboxamide 1-oxide]	≤ 1000	≤ 1000	≤ 1000		≥ 80
Cc1c(C(=O)Nc2ccc(Oc3ccc4nc(NC(=O)C5CC5)cn4c3)c(F)c2)c(=O)n(-c2ccc(F)cc2)n1C [Example 77, N-[4-({2-[(cyclopropylcarbonyl)amino]imidazo[1,2-a]pyridin-6-yl}oxy)-3-fluorophenyl]-2-(4-fluorophenyl)-1,5-dimethyl-3-oxo-2,3-dihydro-1H-pyrazole-4-carboxamide]	≤ 1000	≤ 1000	≤ 1000		≥ 80
Cc1cc(C)n(-c2ccc(F)cc2)c(=O)c1C(=O)Nc1ccc(Oc2ccc3nc(NC(=O)C4CC4)cn3c2)c(F)c1 [Example 82, N-[4-({2-[(cyclopropylcarbonyl)amino]imidazo[1,2-a]pyridin-6-yl}oxy)-3-fluorophenyl]-1-(4-fluorophenyl)-4,6-dimethyl-2-oxo-1,2-dihydropyridine-3-carboxamide]	≤ 1000	≤ 1000	≤ 1000		≥ 80
Cc1ccc(C(=O)Nc2ccc(Oc3ccc4nc(NC(=O)C5CC5)cn4c3)c(F)c2)[n+]([O-])c1-c1ccc(F)cc1 [Example 29, N-[4-({2-[(cyclopropylcarbonyl)amino]imidazo[1,2-a]pyridin-6-yl}oxy)-3-fluorophenyl]-6-(4-fluorophenyl)-5-methylpyridine-2-carboxamide 1-oxide]	≤ 1000	≤ 1000	≤ 1000		≥ 80

The next lines start with results.

IC50 [1] [nM]	IC50 [2] [nM]	IC50 [3] [nM]	inhibition at 1 µM [3] [%]	Structure (SMILES)	inhibition at 1 µM [2] [%]
≤ 1000	≤ 1000	≤ 1000		Cc1ccc(C(=O)Nc2ccc(Oc3ccc4nc(NC(=O)C5CC5)cn4c3)cc2)[n+]([O-])c1-c1ccc(F)cc1 [Example 72, N-[4-({2-[(cyclopropylcarbonyl)amino]imidazo[1,2-a]pyridin-6-yl}oxy)phenyl]-6-(4-fluorophenyl)-5-methylpyridine-2-carboxamide 1-oxide]	≥ 80
≤ 1000	≤ 1000	≤ 1000	≥ 50	Cc1ccc(C(=O)Nc2ccc(Oc3ccc4nc(NC(=O)C5CC5)cn4c3)cc2)c(=O)n1-c1ccc(F)cc1 [Example 28, N-[4-({2-[(cyclopropylcarbonyl)amino]imidazo[1,2-a]pyridin-6-yl}oxy)phenyl]-1-(4-fluorophenyl)-6-methyl-2-oxo-1,2-dihydropyridine-3-carboxamide]	≥ 80
≤ 1000	≤ 1000	≤ 1000		Cc1ccc(C(=O)Nc2ccc(Oc3ccc4nc(NC(=O)C5CC5)cn4c3)cc2F)[n+]([O-])c1-c1ccc(F)cc1 [Example 84, N-[4-({2-[(cyclopropylcarbonyl)amino]imidazo[1,2-a]pyridin-6-yl}oxy)-2-fluorophenyl]-6-(4-fluorophenyl)-5-methylpyridine-2-carboxamide 1-oxide]	≥ 80
≤ 1000	≤ 1000	≤ 1000	≥ 50	O=C(Nc1ccc(Oc2ccc3nc(NC(=O)C4CC4)cn3c2)c(F)c1)c1cccn(-c2ccc(F)cc2)c1=O [Example 10, N-[4-({2-[(cyclopropylcarbonyl)amino]imidazo[1,2-a]pyridin-6-yl}oxy)-3-fluorophenyl]-1-(4-fluorophenyl)-2-oxo-1,2-dihydropyridine-3-carboxamide]	≥ 80
≤ 1000	≤ 1000	≤ 1000		Cc1c(C(=O)Nc2ccc(Oc3ccc4nc(NC(=O)C5CC5)cn4c3)c(F)c2)c(=O)n(-c2ccccc2)n1C [Example 46, N-[4-({2-[(cyclopropylcarbonyl)amino]imidazo[1,2-a]pyridin-6-yl}oxy)-3-fluorophenyl]-1,5-dimethyl-3-oxo-2-phenyl-2,3-dihydro-1H-pyrazole-4-carboxamide]	≥ 80
≤ 1000	≤ 1000	≤ 1000		Cc1cc(C(=O)Nc2ccc(Oc3ccc4nc(NC(=O)C5CC5)cn4c3)c(F)c2)c(=O)n(-c2ccc(F)cc2)c1 [Example 66, N-[4-({2-[(cyclopropylcarbonyl)amino]imidazo[1,2-a]pyridin-6-yl}oxy)-3-fluorophenyl]-1-(4-fluorophenyl)-5-methyl-2-oxo-1,2-dihydropyridine-3-carboxamide]	≥ 80
